Source: PubChem BioAssay AID1508612
Where “and” joins values, the source holds several entries; their conditions need not be identical. Identical values can stand only once.

Assay: passive permeability, PAMPA, ADME assay (AID 1508612)
Details: pH 7.4, 30.0 min, 50.0 µM

Q: With `CCOC(=O)c1nc(Nc2ccc(N3CCC(C)CC3)cc2)c2ccccc2n1` as the molecule, how does the Papp read?
A: Its Papp is > 1000 ×10⁻⁶ cm/s.

Q: With `O=C(Cc1ccc(Cl)c(Cl)c1)Nc1ccc(S(=O)(=O)Nc2ccon2)cc1` as the molecule, how does the Papp read?
A: The Papp was 9.17 ×10⁻⁶ cm/s.

Q: With `CCN(CCCO)CCCOc1ccc2c(Nc3cc(CC(=O)Nc4cccc(F)c4)[nH]n3)ncnc2c1` as the molecule, how does the Papp read?
A: The Papp was 2.5 ×10⁻⁶ cm/s.

Q: For `Fc1cc(Nc2nc(-c3ccncc3)nc3ccccc23)ccc1OC(F)(F)F`, which Papp is on record?
A: Its Papp is 552 ×10⁻⁶ cm/s.

Q: Which Papp does the source give for `Cc1ccc(S(=O)(=O)Nc2ccccc2C(=O)Nc2cnc(-c3ccccc3)cn2)cc1` here?
A: The Papp was > 1000 ×10⁻⁶ cm/s.

Q: For `COc1ccc(C2(C(=O)N3CCC(n4cc(-c5nc(C)no5)nn4)CC3)CC2)cc1`, which Papp is on record?
A: Its Papp is 34.9 ×10⁻⁶ cm/s.

Q: Which Papp does the source give for `CCOc1ccc(CCNC(=O)c2cc3sccc3n2Cc2ccncc2)cc1OCC` here?
A: Its Papp is > 1000 ×10⁻⁶ cm/s.

Q: For `O=C(O)CCNc1cc(N2CCc3ccccc3CC2)nc(-c2ccccn2)n1`, which Papp is on record?
A: Its Papp is < 1 ×10⁻⁶ cm/s.

Q: Which Papp does the source give for `Fc1cc(Nc2nc(-c3ccncc3)nc3ccccc23)ccc1C(F)(F)F` here?
A: The Papp was 641 ×10⁻⁶ cm/s.

Q: Which Papp does the source give for `O=C1NC(=O)C(c2cnc3ccccn23)=C1c1cn2c3c(cccc13)CN(C(=O)N1CCOCC1)CC2` here?
A: The Papp was 82.9 ×10⁻⁶ cm/s.

Q: Which Papp does the source give for `Cc1ccc(CC(=O)Nc2nc(-c3ccc4c(c3)CCN4C(=O)c3ccccc3C)c(C)s2)cc1C` here?
A: The Papp was 222 ×10⁻⁶ cm/s.

Q: Which Papp does the source give for `Cn1nnnc1Sc1ncnc2scc(-c3ccc(F)cc3)c12` here?
A: The Papp was 911 ×10⁻⁶ cm/s.

Q: With `O=C(Nc1nnc(-c2ccco2)o1)c1ccc(Cl)cc1` as the molecule, how does the Papp read?
A: The Papp was 24.2 ×10⁻⁶ cm/s.

Q: Which Papp does the source give for `CCNC(=O)c1coc(COc2ccc3c(c2)C(c2ccc(F)cc2)N(C(=O)CC(C)C)CC3)n1` (stereo not drawn) here?
A: Its Papp is 938 ×10⁻⁶ cm/s.

Q: With `COc1ccc(CCNc2ncnc3onc(C)c23)c(OC)c1` as the molecule, how does the Papp read?
A: The Papp was 752 ×10⁻⁶ cm/s.

Q: With `CN=C1CN=C(c2ccc[nH]2)c2cc(Cl)ccc2N1` as the molecule, how does the Papp read?
A: Its Papp is 354 ×10⁻⁶ cm/s and > 1000 ×10⁻⁶ cm/s.

Q: With `CCOc1ccc(CCNC(=O)c2cc3sccc3n2CCN2CCOCC2)cc1OCC` as the molecule, how does the Papp read?
A: The Papp was > 1000 ×10⁻⁶ cm/s.

Q: For `CN(C)CCCN1c2ccc(O)cc2Sc2ccc(Cl)cc21`, which Papp is on record?
A: The Papp was > 1000 ×10⁻⁶ cm/s.

Q: For `Cc1cnc(-c2ccccc2C(C)C)nc1NCC1CCN(c2cccnc2)CC1`, which Papp is on record?
A: Its Papp is > 1000 ×10⁻⁶ cm/s.

Q: Which Papp does the source give for `C#CCNC(=O)c1nc(-c2ccc([S+](C)(=O)[O-])cc2)c2cnccn12` here?
A: The Papp was < 1 ×10⁻⁶ cm/s.

Q: For `Fc1ccc(CN2CCOC[C@H]2c2ncc(-c3ccc(Cl)s3)[nH]2)cc1`, which Papp is on record?
A: Its Papp is > 1000 ×10⁻⁶ cm/s.

Q: For `CC[C@@](C)(Nc1ccnc(-c2c[nH]c3ncccc23)n1)C(=O)NCC(F)(F)F`, which Papp is on record?
A: The Papp was 612 ×10⁻⁶ cm/s.

Q: With `COc1ccc(C(=O)Nc2nc(-c3ccccc3)cs2)cc1NS(=O)(=O)c1ccc(C)cc1` as the molecule, how does the Papp read?
A: Its Papp is 14.9 ×10⁻⁶ cm/s.

Q: Which Papp does the source give for `Cc1cnc(-c2ccccc2C(F)F)nc1NCc1ccc(-c2cccnc2)cc1` here?
A: Its Papp is > 1000 ×10⁻⁶ cm/s.

Q: With `CC1CCN(C(=O)c2ccc(-c3ccc(N4CCSCC4)nc3)cc2)CC1` as the molecule, how does the Papp read?
A: The Papp was > 1000 ×10⁻⁶ cm/s.

Q: Which Papp does the source give for `CC1=Nc2cc(C(=O)NCCc3ccccc3)ccc2Sc2c(C)ccc(C)c21` here?
A: Its Papp is 359 ×10⁻⁶ cm/s.

Q: With `Cc1cnc(-c2ccccc2C(C)C)nc1NCC1CCN(C2COC2)CC1` as the molecule, how does the Papp read?
A: The Papp was > 1000 ×10⁻⁶ cm/s.

Q: For `Cc1ccccc1C(=O)N1CCc2cc(-c3nc(NC(=O)Cc4ccccc4)sc3C)ccc21`, which Papp is on record?
A: The Papp was > 1000 ×10⁻⁶ cm/s.

Q: Which Papp does the source give for `CCOC(=O)c1ccc(N2C(=O)c3[nH]nc(-c4ccc(OC)cc4)c3C2c2ccc(C)cc2)cc1` (stereo not drawn) here?
A: The Papp was 17.7 ×10⁻⁶ cm/s.

Q: For `C=Cc1ccc(C(=O)N2CCCC(CCC(=O)N3CCN(c4ccccn4)CC3)C2)cc1` (stereo not drawn), which Papp is on record?
A: Its Papp is 421 ×10⁻⁶ cm/s.

Q: Which Papp does the source give for `COC(=O)CNC(=O)c1nc(-c2ccc(F)cc2)c2ccccn12` here?
A: The Papp was > 1000 ×10⁻⁶ cm/s.

Q: For `C=CCc1ccc(O)c(-c2ccc(O)c(CC=C)c2)c1`, which Papp is on record?
A: The Papp was > 1000 ×10⁻⁶ cm/s.

Q: For `COc1cc2nccc(Oc3ccc(NC(=O)C4(C(=O)Nc5ccc(F)cc5)CC4)cc3)c2cc1OC`, which Papp is on record?
A: The Papp was 507 ×10⁻⁶ cm/s.

Q: Which Papp does the source give for `COc1ccc(O)c2c(=O)c3c(OC)cc4c(c3oc12)C1C=COC1O4` (stereo not drawn) here?
A: Its Papp is 890 ×10⁻⁶ cm/s.

Q: With `Oc1cccc2nc3ccccc3nc12` as the molecule, how does the Papp read?
A: The Papp was 513 ×10⁻⁶ cm/s.

Q: For `CC(C)(C)c1ccc(C(=O)Nc2cn3cc(-n4ccnc4)ccc3n2)cc1`, which Papp is on record?
A: The Papp was 952 ×10⁻⁶ cm/s.

Q: Which Papp does the source give for `Cn1ccc2c(C(=O)NCC3CCC(=O)N3)nc(-c3ccccc3C#N)cc21` (stereo not drawn) here?
A: Its Papp is 265 ×10⁻⁶ cm/s.

Q: For `CCCN1CNc2c(c(=O)[nH]c(=S)n2Cc2ccc(OC)c(OC)c2)C1`, which Papp is on record?
A: Its Papp is 55 ×10⁻⁶ cm/s.

Q: For `CC1=C(C(=O)Nc2ccccc2)C(c2ccc[nH]2)n2ncnc2N1` (stereo not drawn), which Papp is on record?
A: Its Papp is 80 ×10⁻⁶ cm/s.

Q: For `CN1C(=O)c2ccccc2[S@](=O)c2ccc(C(=O)NCc3ccc(Br)cc3)cc21`, which Papp is on record?
A: Its Papp is > 1000 ×10⁻⁶ cm/s.

Q: Which Papp does the source give for `Cc1ccccc1C(=O)N1CCc2cc(-c3nc(NC(=O)Cc4ccc5c(c4)OCCO5)sc3C)ccc21` here?
A: The Papp was 761 ×10⁻⁶ cm/s.

Q: For `OCCn1cc(-c2cnc3nnn(Cc4ccc5ncccc5c4)c3n2)cn1`, which Papp is on record?
A: Its Papp is 97.5 ×10⁻⁶ cm/s.

Q: For `Cc1[nH]c2ccccc2c1CN1CCN(c2ccccn2)CC1`, which Papp is on record?
A: The Papp was > 1000 ×10⁻⁶ cm/s.

Q: With `CC(=O)NCc1ccc(-c2csc(Nc3cccc(C)c3)n2)o1` as the molecule, how does the Papp read?
A: Its Papp is > 1000 ×10⁻⁶ cm/s.

Q: For `CC(C)NC(=O)c1nc(-c2ccc(Cl)nc2)c2ccccn12`, which Papp is on record?
A: The Papp was > 1000 ×10⁻⁶ cm/s.

Q: For `O=c1cc(-c2ccccc2)oc2cc(O)cc(O)c12`, which Papp is on record?
A: Its Papp is 452 ×10⁻⁶ cm/s.

Q: Which Papp does the source give for `COC(=O)Nc1nc2ccc(C(=O)c3ccccc3)cc2[nH]1` here?
A: Its Papp is 282 ×10⁻⁶ cm/s.

Q: Which Papp does the source give for `CC1=C(C(=O)NC2CCCC2)C(c2nn(C)cc2Cl)N=C(Nc2nc3ccccc3o2)N1` (stereo not drawn) here?
A: Its Papp is > 1000 ×10⁻⁶ cm/s.

Q: With `Cc1ccc(S(=O)(=O)Nc2ccc(F)cc2C(=O)Nc2nc(-c3ccccc3)cs2)cc1` as the molecule, how does the Papp read?
A: The Papp was 21.4 ×10⁻⁶ cm/s.

Q: For `Cc1cc(C)nc(NC(=S)N2CCN(c3cccc(C(F)(F)F)n3)CC2)c1`, which Papp is on record?
A: The Papp was 589 ×10⁻⁶ cm/s.

Q: With `Fc1cccc(CN2CCNc3cc(Nc4ccccc4)ncc3C2)c1` as the molecule, how does the Papp read?
A: The Papp was < 1 ×10⁻⁶ cm/s.

Q: With `Cc1ccc(S(=O)(=O)Nc2cnccc2C(=O)Nc2nc(C3CCC3)cs2)cc1` as the molecule, how does the Papp read?
A: Its Papp is 497 ×10⁻⁶ cm/s.

Q: With `Cc1ccccc1C(=O)NC1CCN(c2ccc3nnc(C4CC4)n3n2)CC1` as the molecule, how does the Papp read?
A: Its Papp is 97.8 ×10⁻⁶ cm/s.
